Reference: patent publication US20140128364A1, “THERAPEUTIC USES OF TIGEMONAM AND CARUMONAM” (priority 2012, published 2014)
Converted amounts (≈) assume the structure as drawn. Where two headings read alike, the source gives them in different places.

Columns and labels:
[1] = tested on: Escherichia coli strain ECM6704 (vector pUCP24 alone); assay: microbe, parasite or virus in culture; type: cell-based; details: E. coli ECM6704, vector alone, cation-adjusted Mueller-Hinton broth, 18 h, 35° C.
Protocol: (§1) MICs were recorded after an eighteen-hour growth at 35° C. […] In Table 1, all genes were cloned into vector pUCP24 and introduced into Escherichia coli strain.

[2] = tested on: Escherichia coli EC1007 (KPC-3); assay: microbe, parasite or virus in culture; details: 18 h
[3] = tested on: Enterobacter cloacae ECL1026 (KPC-2, TEM-1); assay: microbe, parasite or virus in culture; type: cell-based; details: 18 h
[4] = tested on: Citrobacter freundii CF1012 (KPC-2); assay: microbe, parasite or virus in culture; details: 18 h
[5] = tested on: Escherichia coli strain ECM6702 expressing KPC-3 β-lactamase; assay: microbe, parasite or virus in culture; details: 18 h
Protocol: as §1

[6] = tested on: Escherichia coli strain ECM6701 expressing KPC-2 β-lactamase; assay: microbe, parasite or virus in culture; details: 18 h
Protocol: as §1

[7] = tested on: Klebsiella pneumoniae KP1008 (KPC-2); assay: microbe, parasite or virus in culture; details: 18 h
[8] = tested on: Enterobacter cloacae ECL1055 (KPC-3, TEM); assay: MIC, CLSI broth microdilution, clinical strain ECL1055; type: cell-based; details: clinical strain ECL1055, Enterobacter loacae, 18 h, 35° C.
[9] = tested on: Enterobacter cloacae ECL1036 (KPC-3, TEM-1); assay: microbe, parasite or virus in culture; type: cell-based; details: 18 h
[10] = target: purified KPC-2 β-lactamase (Klebsiella pneumoniae, UniProt Q9F663); assay: Kinetics of monobactam hydrolysis by purified KPC-2
Protocol: The optical density was checked every 2 minutes for 2 hours. […] Vmax and Km values were calculated using “Prizm” software (“GraphPad”). Kcat values were calculated using the equation kcat=Vmax/[enzyme concentration].

[11] = tested on: Escherichia coli EC1007 (KPC-3); details: clinical strain EC1007, Escherichia coli, 18 h, 35° C.
[12] = tested on: Citrobacter freundii CF1012 (KPC-2); details: clinical strain CF1012, Citrobacter freundii, 18 h, 35° C.
[13] = tested on: Klebsiella pneumoniae KP1008 (KPC-2); details: clinical strain KP1008, Klebsiella pneumoniae, 18 h, 35° C.
[14] = Escherichia coli, read-out: MIC

purified KPC-2 β-lactamase, sequence (Q9F663 25-293 limits assumed): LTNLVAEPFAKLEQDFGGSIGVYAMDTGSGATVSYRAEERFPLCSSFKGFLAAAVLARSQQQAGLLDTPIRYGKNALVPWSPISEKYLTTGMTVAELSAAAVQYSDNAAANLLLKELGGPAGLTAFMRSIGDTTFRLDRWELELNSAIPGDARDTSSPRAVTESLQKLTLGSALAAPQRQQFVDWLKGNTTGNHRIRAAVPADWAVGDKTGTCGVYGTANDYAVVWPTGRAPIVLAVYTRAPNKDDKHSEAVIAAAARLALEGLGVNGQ

Row | SMILES | MIC [1, 14] [µg/mL] | MIC [2] [µg/mL] | MIC ([3]; Enterobacter cloacae) [µg/mL] | MIC [4] [µg/mL] | MIC ([5]; Escherichia coli) [µg/mL] | MIC ([6]; Escherichia coli) [µg/mL] | MIC [7] [µg/mL] | MIC ([8]; Enterobacter cloacae, read-out: MIC) [µg/mL] | MIC ([9]; Enterobacter cloacae) [µg/mL] | Km ([10]; 50 mM sodium phosphate pH 7.0, 0.1 mg/ml BSA, 37° C., OD 318 nm) [µM] | kcat ([10]; kcat=Vmax/[enzyme concentration]) [s⁻¹] | MIC ([3]; clinical strain ECL1026, Enterobacter cloacae, KPC-2, TEM-1, 35° C.) [µg/mL] | MIC [11] [µg/mL] | MIC [1] | MIC [12] [µg/mL] | MIC ([5]; E. coli ECM6702, KPC-3, cation-adjusted Mueller-Hinton broth, 35° C.) [µg/mL] | MIC ([6]; E. coli ECM6701, KPC-2, cation-adjusted Mueller-Hinton broth, 35° C.) [µg/mL] | MIC [13] [µg/mL] | MIC [8] [µg/mL] | MIC ([9]; clinical strain ECL1036, Enterobacter Vcloacae, KPC-3, TEM-1, 35° C.) [µg/mL]
1 | C[C@H]1[C@H](NC(=O)/C(=N\OC(C)(C)C(=O)O)c2csc(N)n2)C(=O)N1S(=O)(=O)O [Aztreonam, aztreonam] | ≤ 0.125 | – | – | – | – | – | – | – | – | – | – | – | – | – | – | – | – | – | – | –
2 | NC(=O)OC[C@@H]1[C@H](NC(=O)/C(=N\OCC(=O)O)c2csc(N)n2)C(=O)N1S(=O)(=O)O [Carumonam, carumonam] | ≤ 0.125 | 1 (≈ 2.14 µM) | 2 (≈ 4.29 µM) | 2 (≈ 4.29 µM) | 0.25 (≈ 0.536 µM) | 0.25 (≈ 0.536 µM) | 0.5 (≈ 1.07 µM) | 4 (≈ 8.58 µM) | 2 (≈ 4.29 µM) | – | – | – | – | – | – | – | – | – | – | –
3 | CC1(C)[C@H](NC(=O)/C(=N\OCC(=O)O)c2csc(N)n2)C(=O)N1OS(=O)(=O)O [Tigemonam, tigemonam] | – | – | – | – | – | – | – | – | – | 678 | 0.233 | 4 (≈ 9.14 µM) | 1 (≈ 2.29 µM) | <=0.125 μg/ml | 8 (≈ 18.3 µM) | 0.5 (≈ 1.14 µM) | 0.25 (≈ 0.572 µM) | 1 (≈ 2.29 µM) | 8 (≈ 18.3 µM) | 8 (≈ 18.3 µM)
